From ChEMBL document CHEMBL6182947, “Discovery of Phloroglucinol Derivatives as a New Type of Nonnucleoside Inhibitors with Anti-herpes Simplex Virus Type 1 Activity” (J Med Chem, 2025)

How the values were obtained:
[1] = Cytotoxicity against African green monkey Vero cells assessed as cell viability measured after 24 hrs incubation by MTT assay; format: toxicity, cell-based; conditions: chlorocebus sabaeus
[2] = system: Human alphaherpesvirus 1; experiment: Antiviral activity against HSV1 infected in African green monkey Vero cells assessed as reduction of virus-induced cytopathic effect measured after 48 hrs of incubation; format: functional, organism-based; conditions: Human alphaherpesvirus 1, Vero
[3] = Selectivity index, ratio of CC50 for Cytotoxicity against african green monkey Vero cells to IC50 for Antiviral activity against HSV1 infected in African green monkey Vero cells; format: toxicity, cell-based; conditions: read-out: Selectivity Index
[4] = system: Human alphaherpesvirus 1; experiment: Antiviral activity against ACV-resistant HSV1 153 infected in African green monkey Vero cells assessed as reduction of virus-induced cytopathic effect measured after 48 hrs of incubation; format: functional, organism-based; conditions: Human alphaherpesvirus 1, 153, Vero
[5] = system: Human alphaherpesvirus 1; experiment: Antiviral activity against ACV-resistant HSV1 Blue infected in African green monkey Vero cells assessed as reduction of virus-induced cytopathic effect measured after 48 hrs of incubation; format: functional, organism-based; conditions: Human alphaherpesvirus 1, Blue

CC(C)CC1C2=C(Oc3c(C(=O)C(C)C)c(O)cc(O)c31)C(C)(C)C(=O)C(C)(C)C2=O (racemic)
CC50 at 24 h [1]: 12.8 µM | IC50 [2]: 3.5 µM | selectivity ratio [3]: 3.65

CC(C)CC(=O)c1c(O)cc2c(c1O)C(C(C)C)C1=C(O2)C(C)(C)C(=O)C(C)(C)C1=O (stereo not drawn)
IC50 [4]: 0.7 µM | CC50 at 24 h [1]: 10 µM | IC50 [5]: 0.6 µM | IC50 [2]: 0.63 µM | selectivity ratio [3]: 15.9

CC(C)CC(=O)c1c(O)cc2c(c1O)C(C1CCCC1)C1=C(O2)C(C)(C)C(=O)C(C)(C)C1=O (stereo not drawn)
IC50 [4]: 0.5 µM | CC50 at 24 h [1]: 8 µM | IC50 [5]: 0.5 µM | IC50 [2]: 0.7 µM | selectivity ratio [3]: 11.4

CC(C)CC(=O)c1c(O)cc2c(c1O)C(CC(C)C)C1=C(CCCC1=O)O2 (stereo not drawn)
CC50 at 24 h [1]: 16 µM | IC50 [2]: 3 µM | selectivity ratio [3]: 5.33

CC(C)CC(=O)c1c(O)cc(O)c2c1OC1=C(C(=O)C(C)(C)C(=O)C1(C)C)C2c1ccccc1 (racemic)
CC50 at 24 h [1]: 12.8 µM | IC50 [2]: 2.5 µM | selectivity ratio [3]: 5.11

COc1cc2c(c(OC)c1C(=O)CC(C)C)C(CC(C)C)C1=C(O2)C(C)(C)C(=O)C(C)(C)C1=O (stereo not drawn)
CC50 at 24 h [1]: > 100 µM | IC50 [2]: 50 µM

CCCC(=O)c1c(O)cc2c(c1O)C(CC(C)C)C1=C(O2)C(C)(C)C(=O)C(C)(C)C1=O (stereo not drawn)
IC50 [4]: 0.6 µM | CC50 at 24 h [1]: 10 µM | IC50 [5]: 0.8 µM | IC50 [2]: 0.5 µM

CCC(=O)c1c(O)cc2c(c1O)C(CC(C)C)C1=C(O2)C(C)(C)C(=O)C(C)(C)C1=O (stereo not drawn)
IC50 [4]: 1.3 µM | CC50 at 24 h [1]: 7 µM | IC50 [5]: 1.4 µM | IC50 [2]: 0.7 µM | selectivity ratio [3]: 13.9

CC(=O)c1c(O)cc(O)c2c1OC1=C(C(=O)C(C)(C)C(=O)C1(C)C)C2CC(C)C (stereo not drawn)
CC50 at 24 h [1]: > 100 µM | IC50 [2]: 10 µM | selectivity ratio [3]: > 10

COc1c(C(=O)CC(C)C)c(O)cc2c1C(CC(C)C)C1=C(O2)C(C)(C)C(=O)C(C)(C)C1=O (stereo not drawn)
CC50 at 24 h [1]: > 100 µM | IC50 [2]: 50 µM

CC(C)CC(=O)c1c(O)cc2c(c1O)C(C)C1=C(O2)C(C)(C)C(=O)C(C)(C)C1=O (racemic)
CC50 at 24 h [1]: 10 µM | IC50 [2]: 0.8 µM | selectivity ratio [3]: < 18.8

CC(C)C(=O)c1c(O)cc2c(c1O)C(C(C)C)C1=C(O2)C(C)(C)C(=O)C(C)(C)C1=O (racemic)
CC50 at 24 h [1]: 20.9 µM | IC50 [2]: 0.78 µM | selectivity ratio [3]: 26.8

CC(C)CC(=O)c1c(O)cc2c(c1O)[C@@H](CC(C)C)C1=C(C[C@H](C)CC1=O)O2
CC50 at 24 h [1]: 14 µM | IC50 [2]: 2 µM | selectivity ratio [3]: 7

CC(C)CC(=O)c1c(O)cc2c(c1O)C(Cc1ccccc1)C1=C(O2)C(C)(C)C(=O)C(C)(C)C1=O (stereo not drawn)
IC50 [4]: 0.6 µM | CC50 at 24 h [1]: 13 µM | IC50 [5]: 0.6 µM | IC50 [2]: 0.6 µM | selectivity ratio [3]: 21.7

CC(C)CC(=O)c1c(OS(=O)(=O)C(F)(F)F)cc2c(c1O)C(CC(C)C)C1=C(O2)C(C)(C)C(=O)C(C)(C)C1=O (stereo not drawn)
IC50 [4]: 0.6 µM | CC50 at 24 h [1]: 20 µM | IC50 [5]: 1 µM | IC50 [2]: 1.2 µM | selectivity ratio [3]: 16.7

CC(C)CC1C2=C(Oc3cc(O)c(C(=O)CCCCCl)c(O)c31)C(C)(C)C(=O)C(C)(C)C2=O (stereo not drawn)
IC50 [4]: 0.5 µM | CC50 at 24 h [1]: 8 µM | IC50 [5]: 0.6 µM | IC50 [2]: 0.45 µM | selectivity ratio [3]: 16

CC(C)CC(=O)c1c(O)cc2c(c1O)[C@H](CC(C)C)C1=C(C[C@H](C)CC1=O)O2
CC50 at 24 h [1]: 20 µM | IC50 [2]: 2.25 µM | selectivity ratio [3]: 8.89

CC(C)CC(=O)c1c(O)cc2c(c1O)C(C1CCC1)C1=C(O2)C(C)(C)C(=O)C(C)(C)C1=O (stereo not drawn)
IC50 [4]: 0.4 µM | CC50 at 24 h [1]: 5 µM | IC50 [5]: 0.5 µM | IC50 [2]: 0.5 µM | selectivity ratio [3]: 10

CC(C)CC(=O)c1c(O)c(C=O)c2c(c1O)C(CC(C)C)C1=C(O2)C(C)(C)C(=O)C(C)(C)C1=O (stereo not drawn)
CC50 at 24 h [1]: 9 µM | IC50 [2]: 2.5 µM | selectivity ratio [3]: 3.6

CC(C)C1C2=C(Oc3cc(O)cc(O)c31)C(C)(C)C(=O)C(C)(C)C2=O (stereo not drawn)
CC50 at 24 h [1]: 20 µM | IC50 [2]: 9 µM | selectivity ratio [3]: 2.22

CC(C)CC(=O)c1c(O)cc2c(c1O)[C@@H](CC(C)C)C1=C(O2)C(C)(C)C(=O)C(C)(C)C1=O
CC50 at 24 h [1]: 7.5 µM | IC50 [2]: 0.41 µM | selectivity ratio [3]: 18.3

CC(C)CC1C2=C(Oc3cc(O)c(C(=O)Cc4ccc(F)cc4)c(O)c31)C(C)(C)C(=O)C(C)(C)C2=O (stereo not drawn)
IC50 [4]: 0.2 µM | CC50 at 24 h [1]: 6 µM | IC50 [5]: 0.2 µM | IC50 [2]: 0.35 µM | selectivity ratio [3]: 17.1

CC(C)CC1C2=C(Oc3c(C(=O)C4CCC4)c(O)cc(O)c31)C(C)(C)C(=O)C(C)(C)C2=O (stereo not drawn)
CC50 at 24 h [1]: 10 µM | IC50 [2]: 5.5 µM | selectivity ratio [3]: < 2.72

COc1cc2c(c(O)c1C(=O)CC(C)C)C(CC(C)C)C1=C(O2)C(C)(C)C(=O)C(C)(C)C1=O (stereo not drawn)
CC50 at 24 h [1]: > 100 µM | IC50 [2]: > 100 µM

CC(C)CC(=O)c1ccc2c(c1O)C(CC(C)C)C1=C(O2)C(C)(C)C(=O)C(C)(C)C1=O (stereo not drawn)
CC50 at 24 h [1]: > 100 µM | IC50 [2]: 50 µM

CC(C)CC1C2=C(Oc3cc(O)c(C(=O)C4CCCCC4)c(O)c31)C(C)(C)C(=O)C(C)(C)C2=O (stereo not drawn)
IC50 [4]: 0.3 µM | CC50 at 24 h [1]: 7 µM | IC50 [5]: 0.25 µM | IC50 [2]: 0.2 µM | selectivity ratio [3]: 35

CCC1C2=C(Oc3c(C(=O)CC(C)C)c(O)cc(O)c31)C(C)(C)C(=O)C(C)(C)C2=O (racemic)
CC50 at 24 h [1]: 10 µM | IC50 [2]: 1.5 µM | selectivity ratio [3]: < 10

CC(C)CC1C2=C(Oc3cc(O)cc(O)c31)C(C)(C)C(=O)C(C)(C)C2=O (stereo not drawn)
CC50 at 24 h [1]: 13 µM | IC50 [2]: 7 µM | selectivity ratio [3]: 1.86

CC(=O)c1c(O)cc2c(c1O)C(CC(C)C)C1=C(O2)C(C)(C)C(=O)C(C)(C)C1=O (stereo not drawn)
CC50 at 24 h [1]: 12.5 µM | IC50 [2]: 0.9 µM | selectivity ratio [3]: 13.4

CC(C)CC(=O)c1c(O)cc(O)c2c1OC1=C(C(=O)C(C)(C)C(=O)C1(C)C)C2C(C)C (racemic)
CC50 at 24 h [1]: 10 µM | IC50 [2]: 3.75 µM | selectivity ratio [3]: < 4

CC(C)CC1C2=C(Oc3cc(O)c(C=O)c(O)c31)C(C)(C)C(=O)C(C)(C)C2=O (stereo not drawn)
CC50 at 24 h [1]: 16 µM | IC50 [2]: 4.5 µM | selectivity ratio [3]: 3.56

CC(C)CC(=O)c1c(O)cc(O)c2c1OC1=C(C(=O)C(C)(C)C(=O)C1(C)C)C2CC(C)C (racemic)
CC50 at 24 h [1]: 10 µM | IC50 [2]: 2.25 µM | selectivity ratio [3]: 4.44

CC(C)CC(=O)c1c(O)cc2c(c1O)[C@H](CC(C)C)C1=C(O2)C(C)(C)[C@@H](O)C(C)(C)C1=O
CC50 at 24 h [1]: 7.5 µM | IC50 [2]: 2.5 µM | selectivity ratio [3]: 3

CC(C)CC(=O)c1c(O)cc2c(c1O)[C@H](CC(C)C)C1=C(O2)C(C)(C)C(=O)C(C)(C)C1=O
CC50 at 24 h [1]: 7.28 µM | IC50 [2]: 0.39 µM | selectivity ratio [3]: 18.7

CC(C)CC(=O)c1c(O)cc2c(c1O)C(CC(C)C)C1=C(CCC(C)(C)C1=O)O2 (stereo not drawn)
CC50 at 24 h [1]: 16 µM | IC50 [2]: 2.2 µM | selectivity ratio [3]: 7.27

CC(C)CC(O)c1c(O)cc2c(c1O)C(CC(C)C)C1=C(O2)C(C)(C)C(=O)C(C)(C)C1=O (stereo not drawn)
CC50 at 24 h [1]: > 100 µM | IC50 [2]: > 100 µM

CC1(C)C(=O)C2=C(Oc3cc(O)cc(O)c3C2c2ccccc2)C(C)(C)C1=O (stereo not drawn)
CC50 at 24 h [1]: 18 µM | IC50 [2]: 8 µM | selectivity ratio [3]: 2.25

CC(C)CC1C2=C(Oc3cc(O)c(C(=O)c4ccccc4)c(O)c31)C(C)(C)C(=O)C(C)(C)C2=O (stereo not drawn)
CC50 at 24 h [1]: 10 µM | IC50 [2]: 2.5 µM | selectivity ratio [3]: 4
